Data as given in publication PMC10298626 (International Journal of Molecular Sciences, 2023).
Marks after values point to notes of the source that are not given here.

Key:
[1] = system: LPS-stimulated RAW264.7 cells; experiment: NO production (Griess reagent) in LPS-stimulated RAW264.7 cells; type: cell-based, Mouse; conditions: for NO production, Average / NO production, Average (μM): then LPS (500 ng/mL) 20 h, LPS alone 25.9, control 3.1; for Anti-inflammatory effect (inhibition of NO secretion), in words: 20, 40, and 80 μM, compared with LPS-only treatment
Method: A high concentration of NO promotes the synthesis of inflammatory mediators, leading to an inflammatory response, and has been reported to be a cause of various immune diseases. Therefore, this study was conducted to investigate the effect of coumarin derivatives on the production of NO induced by LPS stimulation in RAW264.7 cells. The cells were treated with coumarin derivatives at concentrations of 20, 40, and 80 μM for 2 h. Then, the cells were treated with LPS. After 20 h, the culture supernatant was recovered, and the amount of NO was measured. […] The anti-inflammatory activity of these derivatives depended on the position of the substituted group rather than the electron density of the substituted group.
The Griess reagent was used to measure NO production. RAW264.7 cells were seeded into a 96-well plate and cultured for 24 h. The cells were treated with 20, 40, and 80 μM of coumarin derivatives, cultured for 2 h, and then cultured with LPS (500 ng/mL) for 20 h. The same amount of cell supernatant and Griess reagent were used for the reaction, and absorbance was measured at 540 nm.

in vitro = type: cell-based; conditions: mouse, RAW264.7 cells, then LPS (500 ng/mL) 20 h, read-out: Cell viability, Average (%); for viability at 22 h, 20 μM: 20 μM for 2 h; for viability at 22 h, 40 μM: 40 μM for 2 h; for viability at 22 h, 80 μM: 80 μM for 2 h
Method: To investigate the anti-inflammatory activity of coumarin derivatives, cell viability was analyzed by treating RAW264.7 cells with 23 types of coumarin derivatives at concentrations of 20, 40, and 80 μM for 2 h and with LPS for 20 h.
Mouse macrophage RAW264.7 cells were purchased from the Korea Cell Line Bank (Seoul, Republic of Korea) and cultured in Dulbecco’s Modified Eagle Medium (Corning, NY, USA) containing 10% fetal bovine serum and 1% penicillin/streptomycin at 37 °C and 5% CO2. The medium was changed every 2 days and subcultured when the cells grew > 80%.
EZ-Cytox cell viability assay kit (Dogen, Suwon, Republic of Korea) was used to measure cell viability according to the manufacturer’s instructions. RAW264.7 cells were seeded into a 96-well plate (1 × 10^5 cells/well) and treated with coumarin derivatives at concentrations of 20, 40, and 80 μM. After 2 h, the cells were treated with LPS (500 ng/mL) and cultured for 24 h in a 37 °C, 5% CO2 incubator. The culture supernatant was treated with 10% EZ-Cytox reagent, and a microplate reader was used to measure the absorbance at 450 nm.

Compound	NO production, Average ([1]; 20 μM for 2 h)	NO production, Average ([1]; 40 μM for 2 h)	NO production, Average ([1]; 80 μM for 2 h)	Anti-inflammatory effect (inhibition of NO secretion), in words [1]	viability at 22 h, 20 μM (in vitro)	viability at 22 h, 40 μM (in vitro)	viability at 22 h, 80 μM (in vitro)	NO production, Average (μM) ([1]; 80 μM for 2 h)	NO production, Average (μM) ([1]; 40 μM for 2 h)
N#CC1=C(N)Oc2c(c(=O)oc3ccccc23)C1c1ccccc1F (stereo not drawn) [Coumarin derivative 1]	29.50 µM	29.82 µM	28.71 µM	almost no anti-inflammatory effect	90.4%	96%	109%	–	–
COc1ccccc1C1C(C#N)=C(N)Oc2c1c(=O)oc1ccccc21 (stereo not drawn) [Coumarin derivative 15]	26.33 µM	22.71 µM	–	showed anti-inflammatory effects	109%	112%	114%	19.37 ** μM	–
N#CC1=C(N)Oc2c(c(=O)oc3ccccc23)C1c1ccccc1OC(F)(F)F (stereo not drawn) [Coumarin derivative 12]	16.58 µM	–	–	showed anti-inflammatory effects	99.2%	102%	106%	17.98 *** μM	17.28 *** μM
N#CC1=C(N)Oc2c(c(=O)oc3ccccc23)C1c1ccc(F)cc1 (stereo not drawn) [Coumarin derivative 3]	27.60 µM	28.86 µM	22.84 µM	–	95.4%	101%	110%	–	–
COc1ccc(C2C(C#N)=C(N)Oc3c2c(=O)oc2ccccc32)cc1 (stereo not drawn) [Coumarin derivative 17]	28.68 µM	26.11 µM	–	weak anti-inflammatory effects at high concentrations	122%	122%	137%	20.16 ** μM	–
N#CC1=C(N)Oc2c(c(=O)oc3ccccc23)C1c1ccccc1Cl (stereo not drawn) [Coumarin derivative 7]	32.83 µM	29.66 µM	27.60 µM	–	106%	121%	124%	–	–
Cc1ccc(C2C(C#N)=C(N)Oc3c2c(=O)oc2ccccc32)cc1 (stereo not drawn) [Coumarin derivative 11]	24.80 µM	26.47 µM	26.19 µM	–	113%	108%	122%	–	–
N#CC1=C(N)Oc2c(c(=O)oc3ccccc23)C1c1ccccc1Br (stereo not drawn) [Coumarin derivative 18]	28.03 µM	27.87 µM	25.95 µM	almost no anti-inflammatory effect	129%	130%	138%	–	–
N#CC1=C(N)Oc2c(c(=O)oc3ccccc23)C1c1ccc(C#N)cc1 (stereo not drawn) [Coumarin derivative 22]	31.41 µM	28.84 µM	22.89 µM	weak anti-inflammatory effects at high concentrations	120%	122%	114%	–	–
N#CC1=C(N)Oc2c(c(=O)oc3ccccc23)C1c1ccc(Br)cc1 (stereo not drawn) [Coumarin derivative 20]	31.89 µM	30.12 µM	–	–	114%	124%	135%	19.52 ** μM	–
